Results from patent publication US12297179B2, “Crystalline and salt forms of an organic compound and pharmaceutical compositions thereof” (Servier Pharmaceuticals LLC, priority 2018, dated 2025).
Counter-ions that a name gives are not always drawn. Marks after values point to notes of the source that are not given here.

Columns and labels:
[1] = Sprague Dawley, rat, in vivo, po, 100 mg/kg
Experimental: The objective of the pharmacokinetic (PK) studies was to determine the pharmacokinetics of the different forms of Compound 1 in intact Sprague Dawley rats after oral (PO) administration. […] Food and water were available to all animals ad libitum and Compound 1 or Tris salt Form C of Compound was dosed orally at 100 mg/kg (100 mL/kg). Approximately 110 μL of whole blood was collected via tail vein bleeding predose and at 0.083, 0.25, 0.5, 1, 2, 4, 8, 12 and 24 hours postdose into tubes containing the anticoagulant K2EDTA, processed to obtain plasma, and stored at approximately −70° C. until analysis. Concentrations of the active pharmaceutical ingredient in plasma samples were quantified using a nonvalidated liquid chromatography with tandem mass spectrometry (LC-MS/MS) method. Pharmacokinetic analysis of the individual plasma concentration data was performed using WinNonlin© (Version 6.4; Pharsight Corporation, Mountain View, CA, USA). Pharmacokinetic parameters were estimated using a noncompartmental extravascular models method. Area under the concentration-time curve (AUC) was calculated using the linear trapezoidal rule. […] Concentrations that were <80% of the LLOQ were designated as BLQ.

[2] = Hygroscopicity by dynamic vapor sorption (DVS); assay type: physicochemical; conditions: for moisture uptake: DVS, humidity varied from 0% RH to 80% RH at 25° C.
Experimental: DVS was measured via a SMS (Surface Measurement Systems) DVS Intrinsic. The relative humidity at 25° C. was calibrated against deliquescence point of LiCl, Mg(NO3)2 and KCl.

[3] = Kinetic solubility in bio-relevant media (SGF/FaSSGF, FaSSIF, FeSSIF) and H2O at 37° C., with pH of supernatant; assay type: physicochemical; conditions: for solubility at 15 min / solubility at 30 min / solubility at 1 h / solubility at 2 h / solubility at 24 h: 37 °C, thermodynamic from solid; for Solubility: 37° C.
Experimental: Weigh 100 mg of sodium chloride into a 50-mL volumetric flask. Add appropriate volume of purified water and sonicate until all solids are completely dissolved. Add sufficient purified water closely to the target volume and adjust to pH 1.6. Weigh 3 mg of FaSSIF/FeSSIF/FaSSGF powder into the volumetric flask and sonicate until the powder is completely dissolved. Dilute to target volume with purified water and mix well.
Weigh 0.170 g of monobasic sodium phosphate, 0.021 g of sodium hydroxide and 0.31 g of sodium chloride into a 50-mL volumetric flask. Add appropriate volume of purified water and sonicate until all solids are completely dissolved. Add sufficient purified water closely to the target volume and adjust to pH 6.5. Weigh 110 mg of FaSSIF/FeSSIF/FaSSGF powder into the volumetric flask and sonicate until the powder is completely dissolved. Dilute to target volume with purified water and mix well.
Weigh 0.41 mL of glacial acetic acid, 0.202 g of sodium hydroxide and 0.594 g of sodium chloride into a 50-mL volumetric flask. Add appropriate volume of purified water and sonicate until all solids are completely dissolved. Add sufficient purified water closely to the target volume and adjust to pH 5.0. Weigh 560 mg of FaSSIF/FeSSIF/FaSSGF powder into the volumetric flask and sonicate until the powder is completely dissolved. Dilute to target volume with purified water and mix well.
An Agilent 1260 HPLC with DAD detector was utilized and detailed chromatographic conditions for solubility analysis are listed in Table 5.
Kinetic solubility of Tris salt Form A and free acid Form D were measured in three bio-relevant media (SGF, FaSSIF and FeSSIF) at 37° C. In details, ˜30 mg solids were suspended into 4.0 mL of each medium initially and equilibrated via shaking (500 rpm) at 37° C. Approximately 0.8 mL suspension was extracted at each time point of 15/30/60/120 mins and 24 hrs. The supernatant and precipitate were separated by centrifugation (10000 rpm, ˜3 mins) followed by concentration (HPLC) and pH measurement for supernatant and the corresponding solid forms were characterized by XRPD.
Due to the thermodynamic stability of Tris salt Form C, further evaluation was conducted, including kinetic solubility in three bio-relevant media (FaSSGF/FaSSF/FeSSIF) and H2O at 37° C.

[4] = Thermodynamic stability: slurry competition between Tris salt Forms A and C; assay type: physicochemical; conditions: DMSO/EtOH (1:8, v/v) and EtOH, 5° C./RT/50° C./75° C., 7 days
Experimental: The thermodynamic stability relationship between Tris salt Forms A and C was investigated via slurry competition experiments in 2 process related solvent systems, DMSO/EtOH (1:8, v/v) and EtOH at 4 temperature conditions (5° C./RT/50° C./75° C.). Two stages of slurry competition experiments were conducted, of which the first stage included temperature as a variable and the second stage used newly opened reagents to minimize the effect of absorbed moisture. Typical experimental procedures are described below.
About 5-10 mg of crystalline Tris salt Form C was first dissolved in ˜1.0 mL of corresponding solvent to form nearly saturated solution under corresponding temperature (equilibrating method: stirring magnetically, ˜1000 rpm, ˜2 hrs). Then ˜15 mg of each form (crystalline Tris salt Forms A and C) was physically mixed, followed by addition of the nearly saturated solution to form a suspension. The suspensions were then stirred (˜1000 rpm) under corresponding temperature for 7 days (a small amount of solids were sampled at 2 day point in the second stage experiments). The obtained solids were isolated via centrifugation (10000 rpm, 2 mins) and tested by XRPD to confirm the form.

With `Cc1ccccc1-c1ccc(-c2cc(C(=O)O)c3c(c2)nnn3C)cc1` [Tris salt, 1-methyl-5-(2′-methyl-[1,1′-biphenyl]-yl)-1H-benzo[d][1,2,3]triazole-7-carboxylate Tris salt] the “Cmax, fold higher than best free acid batch Lot B” value [1] was about 1.5 fold and the “Tmax, fold lower than best free acid batch Lot B” value [1] was about 2 fold.

With `Cc1ccccc1-c1ccc(-c2cc(C(=O)O)c3c(c2)nnn3C)cc1` [Tris salt Form C] the “solid form after the DVS test (XRPD)” value ([2]; 25° C.) was “remained as Tris salt Form C”, the moisture uptake [2] was about 0.04 wt % and the solubility at 15 min ([3]; FaSSIF, pH 6.5, fassif, Table 12, FaSSIF, 15 min) was 390 µg/mL. It also gave a solubility at 30 min ([3]; FaSSIF, pH 6.5, fassif, Table 12, FaSSIF, 30 min) of 320 µg/mL, a solubility at 1 h ([3]; FaSSIF, pH 6.5, fassif, Table 12, FaSSIF, 1 h) of 250 µg/mL and a solubility at 2 h ([3]; FaSSIF, pH 6.5, fassif, Table 12, FaSSIF, 2 h) of 220 µg/mL. It also gave a solubility at 24 h ([3]; FaSSIF, pH 6.5, fassif, Table 12, FaSSIF, 24 h) of 170 µg/mL, a solubility at 15 min ([3]; FeSSIF, pH 5, fessif, Table 12, FeSSIF, 15 min) of 330 µg/mL and a solubility at 30 min ([3]; FeSSIF, pH 5, fessif, Table 12, FeSSIF, 30 min) of 270 µg/mL. It also gave a solubility at 1 h ([3]; FeSSIF, pH 5, fessif, Table 12, FeSSIF, 1 h) of 50 µg/mL, a solubility at 2 h ([3]; FeSSIF, pH 5, fessif, Table 12, FeSSIF, 2 h) of 40 µg/mL and a solubility at 24 h ([3]; FeSSIF, pH 5, fessif, Table 12, FeSSIF, 24 h) of 40 µg/mL. For the same compound, the Solubility ([3]; Table 12, FaSSGF, 15 min) was “<LOD”, the Solubility ([3]; Table 12, FaSSGF, 30 min) was “<LOD” and the Solubility ([3]; Table 12, FaSSGF, 1 h) was “<LOD”. For the same compound, the Solubility ([3]; Table 12, FaSSGF, 2 h) was “<LOD”, the Solubility ([3]; Table 12, FaSSGF, 24 h) was “<LOD” and the pH ([3]; Table 12, FaSSGF, 15 min) was 3.0. The pH ([3]; Table 12, FaSSGF, 30 min) was 3.1, the pH ([3]; Table 12, FaSSGF, 1 h) was 4.0 and the pH ([3]; Table 12, FaSSGF, 2 h) was 4.1. For the same compound, the pH ([3]; Table 12, FaSSGF, 24 h) was 3.1, the pH ([3]; Table 12, FaSSIF, 15 min) was 7.7 and the pH ([3]; Table 12, FaSSIF, 30 min) was 7.8. It also gave a pH ([3]; Table 12, FaSSIF, 1 h) of 7.8, a pH ([3]; Table 12, FaSSIF, 2 h) of 7.8 and a pH ([3]; Table 12, FaSSIF, 24 h) of 7.9. For the same compound, the pH ([3]; Table 12, FeSSIF, 15 min) was 5.5*, the pH ([3]; Table 12, FeSSIF, 30 min) was 5.6* and the pH ([3]; Table 12, FeSSIF, 1 h) was 5.6. The pH ([3]; Table 12, FeSSIF, 2 h) was 5.6, the pH ([3]; Table 12, FeSSIF, 24 h) was 5.6 and the pH ([3]; Table 12, H2O, 15 min) was 8.9. For the same compound, the pH ([3]; Table 12, H2O, 30 min) was 9.0, the pH ([3]; Table 12, H2O, 1 h) was 9.0 and the pH ([3]; Table 12, H2O, 2 h) was 9.0. For the same compound, the pH ([3]; Table 12, H2O, 24 h) was 9.2, the solubility at 15 min ([3]; water, Table 12, H2O, 15 min) was 810 µg/mL and the solubility at 30 min ([3]; water, Table 12, H2O, 30 min) was 820 µg/mL. It also gave a solubility at 1 h ([3]; water, Table 12, H2O, 1 h) of 720 µg/mL, a solubility at 2 h ([3]; water, Table 12, H2O, 2 h) of 750 µg/mL and a solubility at 24 h ([3]; water, Table 12, H2O, 24 h) of 400 µg/mL. The “form after slurry competition (XRPD), thermodynamic stability” value [4] was “thermodynamically more stable”.

Compound `Cc1ccccc1-c1ccc(-c2cc(C(=O)O)c3c(c2)nnn3C)cc1` [Tris salt Form A] has a moisture uptake [2] of about 5 wt %, a Solubility ([3]; FaSSIF, 15 mins) of 490 µg/mL and a Solubility ([3]; FaSSIF, 30 mins) of 260 µg/mL. It also gave a Solubility ([3]; FaSSIF, 60 mins) of 200 µg/mL, a Solubility ([3]; FaSSIF, 120 mins) of 170 µg/mL and a Solubility ([3]; FaSSIF, 24 hrs) of 130 µg/mL. For the same compound, the Solubility ([3]; FeSSIF, 15 mins) was 160 µg/mL, the Solubility ([3]; FeSSIF, 30 mins) was 200 µg/mL and the Solubility ([3]; FeSSIF, 60 mins) was 290 µg/mL. The Solubility ([3]; FeSSIF, 120 mins) was 81 µg/mL, the Solubility ([3]; FeSSIF, 24 hrs) was 120 µg/mL and the Solubility ([3]; SGF, 15 mins) was 60 µg/mL. For the same compound, the Solubility ([3]; SGF, 30 mins) was 94 µg/mL, the Solubility ([3]; SGF, 60 mins) was 100 µg/mL and the Solubility ([3]; SGF, 24 hrs) was 110 µg/mL. The solubility at 24 h ([3]; SGF, FaSSIF and FeSSIF, fassgf or other biorelevant, all SGF/FaSSIF/FeSSIF media, at 24 hours point) was over 100 µg/mL, the pH ([3]; supernatant, FaSSIF (blank pH 6.5), 15 mins) was 7.5 and the pH ([3]; supernatant, FaSSIF (blank pH 6.5), 30 mins) was 7.5. The pH ([3]; supernatant, FaSSIF (blank pH 6.5), 60 mins) was 7.5, the pH ([3]; supernatant, FaSSIF (blank pH 6.5), 120 mins) was 7.5 and the pH ([3]; supernatant, FaSSIF (blank pH 6.5), 24 hrs) was 7.5. For the same compound, the pH ([3]; supernatant, FeSSIF (blank pH 5.0), 15 mins) was 5.4, the pH ([3]; supernatant, FeSSIF (blank pH 5.0), 30 mins) was 5.5 and the pH ([3]; supernatant, FeSSIF (blank pH 5.0), 60 mins) was 5.5. For the same compound, the pH ([3]; supernatant, FeSSIF (blank pH 5.0), 120 mins) was 5.5, the pH ([3]; supernatant, FeSSIF (blank pH 5.0), 24 hrs) was 5.5 and the pH ([3]; supernatant, SGF (blank pH 1.8), 15 mins) was 6.6. The pH ([3]; supernatant, SGF (blank pH 1.8), 30 mins) was 7.2, the pH ([3]; supernatant, SGF (blank pH 1.8), 60 mins) was 7.3 and the pH ([3]; supernatant, SGF (blank pH 1.8), 120 mins) was 7.4. The pH ([3]; supernatant, SGF (blank pH 1.8), 24 hrs) was 7.4 and the “form after slurry competition (XRPD), thermodynamic stability” value [4] was “converted to Tris salt Form C”.
